{
  "source": "patent US20240238250A1",
  "about": "“METHOD OF USING PIROMELATINE FOR TREATING PARASOMNIAS ASSOCIATED WITH LOSS OF REM SLEEP ATONIA” (NEURIM PHARMACEUTICALS (1991) LTD., priority 2023, published 2024)",
  "key": {"[1]": {"tested_on": "patients with primary insomnia", "assay": "REM sleep EEG spectral power after 4-week treatment, 3-arm parallel group study versus placebo", "format": "in vivo, human", "settings": "for REM EEG spectral power, Alpha power ([8; 13] Hz) / REM EEG spectral power, Beta1 power ([15.5; 20.5] Hz) / REM EEG spectral power, Beta2 power ([20.5; 25.5] Hz) / REM EEG spectral power, Beta3 power ([25.5; 32] Hz) / REM EEG spectral power, Beta power ([15.5; 32] Hz) / REM EEG spectral power, Delta power ([0.5; 4] Hz) / REM EEG spectral power, Sigma power ([11.5; 15.5] Hz) / REM EEG spectral power, Theta power ([4; 8] Hz) / REM EEG spectral power, Total EEG power ([0.5; 32] Hz): 4 wks, whole night sleep", "description": "(§1) REM sleep EEG power was calculated to evaluate the effects of chronic (4-week) administration of 20 mg and 50 mg piromelatine compared to those of placebo in patients with primary insomnia. Sleep EEG was recorded in 9 different centers in the frame of a 3-arm parallel group study with a random allocation of patients to one of the three treatment group (i.e., of the 121 patients who had exploitable sleep EEG data, 42 received placebo, 39 received piromelatine 20 mg, and 40 received piromelatine 50 mg).\n(§2) Spectral power was calculated for all-night) and REM sleep for the total EEG spectrum [0.5; 32] Hz and in the following frequency bands: delta [0.5; 4] Hz, theta [4; 8] Hz, alpha [8; 13] Hz, sigma [11.5; 15.5] Hz, beta [15.5; 32] Hz, beta1 [15.5; 20.5] Hz, beta2 [20.5; 25.5] Hz, and beta3 [25.5; 32] Hz.\nNote, REM sleep is longest during the third part of the night."}, "[2]": {"tested_on": "patients with primary insomnia", "assay": "NREM sleep EEG spectral power after 4-week treatment, 3-arm parallel group study versus placebo", "format": "in vivo, human", "settings": "4-wks treatment, 20 and 50 mg; compared to baseline and to placebo", "description": "as §1, with “NREM” for “REM”\nas §2, with “NREM” for “REM”"}},
  "note": "“Also recorded” adds a separate entry of the source.",
  "data": [
    {"smiles": "COc1ccc2[nH]cc(CCNC(=O)c3cc(=O)cco3)c2c1", "note": "[Piromelatine, N-(2-(5-methoxy-1H-indol-3-yl)ethyl)-4-oxo-4H-pyran-2-carboxamide]", "values": [
      {"measurement": "effect on REM sleep alpha power band (in words)", "setting": "[1]; 4-wks treatment, 20 and 50 mg, compared to baseline and to placebo, in particular during the longest REM period in the third part of the night sleep", "value": "increases the spectral power in the a band during REM sleep; also recorded: enhances the REM sleep alpha power band"},
      {"measurement": "effect on other frequencies during REM sleep (in words)", "setting": "[1]; patients with insomnia aged 20-80 years", "value": "minor or no changes in other frequencies"},
      {"measurement": "REM EEG spectral power, Alpha power ([8; 13] Hz)", "setting": "[1]; piromelatine 20 mg, n = 39", "value": "103.36 % of baseline values"},
      {"measurement": "REM EEG spectral power, Beta1 power ([15.5; 20.5] Hz)", "setting": "[1]; piromelatine 20 mg, n = 39", "value": "100.36 % of baseline values"},
      {"measurement": "REM EEG spectral power, Beta2 power ([20.5; 25.5] Hz)", "setting": "[1]; piromelatine 20 mg, n = 39", "value": "98.51 % of baseline values"},
      {"measurement": "REM EEG spectral power, Beta3 power ([25.5; 32] Hz)", "setting": "[1]; piromelatine 20 mg, n = 39", "value": "97.56 % of baseline values"},
      {"measurement": "REM EEG spectral power, Beta power ([15.5; 32] Hz)", "setting": "[1]; piromelatine 20 mg, n = 39", "value": "98.95 % of baseline values"},
      {"measurement": "REM EEG spectral power, Delta power ([0.5; 4] Hz)", "setting": "[1]; piromelatine 20 mg, n = 39", "value": "100.29 % of baseline values"},
      {"measurement": "REM EEG spectral power, Sigma power ([11.5; 15.5] Hz)", "setting": "[1]; piromelatine 20 mg, n = 39", "value": "100.34 % of baseline values"},
      {"measurement": "REM EEG spectral power, Theta power ([4; 8] Hz)", "setting": "[1]; piromelatine 20 mg, n = 39", "value": "101.45 % of baseline values"},
      {"measurement": "REM EEG spectral power, Total EEG power ([0.5; 32] Hz)", "setting": "[1]; piromelatine 20 mg, n = 39", "value": "99.76 % of baseline values"},
      {"measurement": "REM EEG spectral power, Beta1 power ([15.5; 20.5] Hz)", "setting": "[1]; piromelatine 50 mg, n = 40", "value": "98.19 % of baseline values"},
      {"measurement": "REM EEG spectral power, Beta2 power ([20.5; 25.5] Hz)", "setting": "[1]; piromelatine 50 mg, n = 40", "value": "99.93 % of baseline values"},
      {"measurement": "REM EEG spectral power, Beta3 power ([25.5; 32] Hz)", "setting": "[1]; piromelatine 50 mg, n = 40", "value": "97.73 % of baseline values"},
      {"measurement": "REM EEG spectral power, Beta power ([15.5; 32] Hz)", "setting": "[1]; piromelatine 50 mg, n = 40", "value": "99.55 % of baseline values"},
      {"measurement": "REM EEG spectral power, Delta power ([0.5; 4] Hz)", "setting": "[1]; piromelatine 50 mg, n = 40", "value": "103.73 % of baseline values"},
      {"measurement": "REM EEG spectral power, Sigma power ([11.5; 15.5] Hz)", "setting": "[1]; piromelatine 50 mg, n = 40", "value": "103.14 % of baseline values"},
      {"measurement": "REM EEG spectral power, Theta power ([4; 8] Hz)", "setting": "[1]; piromelatine 50 mg, n = 40", "value": "105.03 % of baseline values"},
      {"measurement": "REM EEG spectral power, Total EEG power ([0.5; 32] Hz)", "setting": "[1]; piromelatine 50 mg, n = 40", "value": "105.33 % of baseline values"},
      {"measurement": "REM EEG spectral power, Alpha power ([8; 13] Hz)", "setting": "[1]; piromelatine 50 mg, n = 40, * significant difference (P < 0.05) compared to placebo", "value": "106.55* % of baseline values"},
      {"measurement": "effect on NREM low frequency band (0.5-1.5 Hz) (in words)", "setting": "[2]", "value": "can increase the NREM low frequency band"}
    ]}
  ]
}
